Reference: patent US11866431B2, “Bicyclic compounds” (Vivace Therapeutics, Inc., priority 2018, dated 2024)

Test system: 8XTBD luciferase reporter (YAP reporter) in HEK293T cells
Experiment: YAP Reporter Assay
Assay type: cell-based
Conditions: Homo sapiens, HEK-293T, 24 h, read-out: Firefly Luciferase IC50 (μM)
Summary of the method: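 HEK293T cells stably carrying 8XTBD firefly luciferase and TK-renilla (3×10^3 cells/well) dosed 3-4 h after plating with compounds from 3 μM final, 1:3 dilution, 10 points, quadruplicates. After 24 h at 37° C, Dual-Glo readings gave IC50 and maximum inhibition reported separately for firefly and renilla.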

Compound	IC50 [µM]
CCOc1cc(-c2ccc(C(F)(F)F)cc2)c2ncc(C(=O)NC(C)C)cc2c1 [Compound 80, 6-ethoxy-N-isopropyl-8-(4-(trifluoromethyl)phenyl)quinoline-3-carboxamide]	< 0.1

Same assay, conditions: Homo sapiens, HEK-293T; HEK293T cells stably transfected with 8XTBD luciferase reporter and pRLTK; 24-hr incubation; top concentration 3 μM; read-out: Firefly Luciferase IC50

Compound	IC50 [µM]
COc1cc(-c2ccc(C(F)(F)F)cc2)c2ccc(C(=O)N[C@@H](C)CO)cc2c1 [Compound 296, (S)—N-(1-Hydroxypropan-2-yl)-7-methoxy-5-(4-(trifluoromethyl)phenyl)-2-naphthamide]	< 0.1
CC(C)NC(=O)c1cnc2c(-c3ccc(C(F)(F)F)cc3)cccc2n1 [Compound 268, N-Isopropyl-5-(4-(trifluoromethyl)phenyl)quinoxaline-2-carboxamide]	0.1 to 1
N#CC(O)CCCCNC(=O)c1ccc2c(-c3ccc(C(F)(F)F)cc3)cccc2c1 (stereo not shown) [Compound 231, N-(5-cyano-5-hydroxy-pentyl)-5-[4-(trifluoromethyl)phenyl]naphthalene-2-carboxamide]	0.1 to 1
COCC(C)(C)NC(=O)c1ccc2c(-c3ccc(C(F)(F)F)cc3)cccc2c1 [Compound 212, N-(1-methoxy-2-methylpropan-2-yl)-5-(4-(trifluoromethyl)phenyl)-2-naphthamide]	< 0.1
CC(=O)N1CC([C@H](C)NC(=O)c2ccc3c(-c4ccc(C(F)(F)F)cc4)cccc3c2)C1 [Compound 200, (S)—N-(1-(1-acetylazetidin-3-yl)ethyl)-5-(4-(trifluoromethyl)phenyl)-2-naphthamide]	0.1 to 1
O=C(NCCSSCCNC(=O)c1ccc2c(-c3ccc(C(F)(F)F)cc3)cccc2c1)c1ccc2c(-c3ccc(C(F)(F)F)cc3)cccc2c1 [Compound 115, N,N′-(disulfanediylbis(ethane-2,1-diyl))bis(5-(4-(trifluoromethyl)phenyl)-2-naphthamide)]	1 to 3
C[C@@H](NC(=O)c1ccc2c(-c3ccc(C(F)(F)F)cc3)cccc2c1)c1cccc(N)n1 [Compound 129, (R)—N-(1-(6-aminopyridin-2-yl)ethyl)-5-(4-(trifluoromethyl)phenyl)-2-naphthamide]	< 0.1
C[C@H](NC(=O)c1cnc2c(-c3ccc(C(F)(F)F)cc3)cccc2c1)c1ccccn1 [Compound 103, (S)—N-(1-(pyridin-2-yl)ethyl)-8-(4-(trifluoromethyl)phenyl)quinoline-3-carboxamide]	< 0.1
CC(C)NC(=O)c1cnc2c(-c3ccc(C(F)(F)F)cc3)cc(Cl)c(Cl)c2c1 [Compound 94, 5,6-Dichloro-N-isopropyl-8-(4-(trifluoromethyl)phenyl)quinoline-3-carboxamide]	< 0.1
C[C@H](NC(=O)c1ccc2c(-c3ccc(C(F)(F)F)cc3)cccc2c1)c1cccc(N)n1 [Compound 128, (S)—N-(1-(6-aminopyridin-2-yl)ethyl)-5-(4-(trifluoromethyl)phenyl)-2-naphthamide]	0.1 to 1
C[C@@H](CO)NC(=O)c1ccc2c(-c3ccc(C(F)(F)F)cc3)cccc2c1 [Compound 84, (S)—N-(1-hydroxypropan-2-yl)-5-(4-(trifluoromethyl)phenyl)-2-naphthamide]	< 0.1
O=C(NCc1ccnc(CF)n1)c1ccc2c(-c3ccc(C(F)(F)F)cc3)cccc2c1 [Compound 170, N-((2-(fluoromethyl)pyrimidin-4-yl)methyl)-5-(4-(trifluoromethyl)phenyl)-2-naphthamide]	< 0.1
O=C(NCC/C=C/COc1ccon1)c1ccc2c(-c3ccc(C(F)(F)F)cc3)cccc2c1 [Compound 181, N-[(E)-5-isoxazol-3-yloxypent-3-enyl]-5-[4-(trifluoromethyl)phenyl]naphthalene-2-carboxamide]	< 0.1
CC(C)NC(=O)c1ccc2c(-c3ccc(C(F)(F)F)cc3)ccc(NS(C)(=O)=O)c2c1 [Compound 23, N-isopropyl-8-(methylsulfonamido)-5-(4-(trifluoromethyl)phenyl)-2-naphthamide]	< 0.1
C[C@H](CN1CCOCC1)NC(=O)c1ccc2c(-c3ccc(C(F)(F)F)cc3)cccc2c1 [Compound 70, (R)—N-(1-morpholinopropan-2-yl)-5-(4-(trifluoromethyl)phenyl)-2-naphthamide]	1 to 3
